Laboratory results: patent publication US5691155A, “Nucleotide sequences encoding the murine β3-adrenergic receptor and their applications” (priority 1991, dated 1997)
Entries after “also recorded” stand apart in the source; their conditions may differ. Like-named read-outs stand apart in the source and are kept apart here. Values belong to the compound of their own block, whether it stands above or below them.

Legend:
murine RA-β3 [1] = target: T1, murine RA-β3 (Mus musculus, UniProt P25962); test: cAMP accumulation in CHO-Muβ3 cells (agonists); type: cell-based; settings: for A.I. (% IPR), intrinsic activity: % of maximum effect of (-)-isoproterenol; for maximum stimulation of cAMP accumulation: % of that for (-)-isoproterenol; for activation of receptor by β1 and β2 antagonists (in words): murine RA-β3; for agonist type (in words): murine RA-β3, CHO-Muβ3
T1 construct: expressed in transfected cells
T1 sequence (P25962 1-388): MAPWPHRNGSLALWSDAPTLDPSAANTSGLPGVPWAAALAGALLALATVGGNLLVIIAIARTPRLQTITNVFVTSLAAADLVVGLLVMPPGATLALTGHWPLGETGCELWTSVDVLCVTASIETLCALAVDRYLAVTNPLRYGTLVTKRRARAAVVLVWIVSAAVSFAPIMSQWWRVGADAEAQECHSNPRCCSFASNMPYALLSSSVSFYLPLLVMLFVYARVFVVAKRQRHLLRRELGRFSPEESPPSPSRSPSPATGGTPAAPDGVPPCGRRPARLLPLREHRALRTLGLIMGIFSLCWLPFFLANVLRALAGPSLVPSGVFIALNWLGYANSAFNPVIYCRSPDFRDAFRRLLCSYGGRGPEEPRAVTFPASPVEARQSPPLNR
Procedure: (§1) a. Test for cAMP Accumulation
(§2) preconfluent cells such as those described in Example 5 (5×10^5) are incubated at 37° C. for 20 minutes in 0.5 ml of HANKS buffer containing 20 mM HEPES (pH 7.4), 1 mM ascorbic acid, 1 mM isobutylmethylxanthine and various concentrations of agonist.
(§3) After boiling for 5 min and centrifugation (4000 r.p.m., 10 min, 4° C.), the quantity of cAMP produced is determined using the Amersham cAMP kit.
To determine the pharmacological profile of murine RA-β3, the coding region of its gene was inserted into an expression vector like that described in Example 5.
(§4) The Kact values correspond to the agonist concentration giving 50% of the maximum stimulation.

obese rat cells = settings: cited from earlier work
human RA-β3 [2] = target: T2, human RA-β3 (Homo sapiens, UniProt P13945); test: cAMP accumulation in CHO-Huβ3 cells (agonists); type: cell-based; settings: for EC50: CHO-Huβ3, agonist concentration giving 50% of the maximum stimulation, read-out: Kact; for activation of receptor by β1 and β2 antagonists (in words): human RA-β3
T2 construct: expressed in transfected cells; host or cells: CHO (Chinese Hamster Ovary), CHO-Huβ3
T2 sequence (P13945 1-402): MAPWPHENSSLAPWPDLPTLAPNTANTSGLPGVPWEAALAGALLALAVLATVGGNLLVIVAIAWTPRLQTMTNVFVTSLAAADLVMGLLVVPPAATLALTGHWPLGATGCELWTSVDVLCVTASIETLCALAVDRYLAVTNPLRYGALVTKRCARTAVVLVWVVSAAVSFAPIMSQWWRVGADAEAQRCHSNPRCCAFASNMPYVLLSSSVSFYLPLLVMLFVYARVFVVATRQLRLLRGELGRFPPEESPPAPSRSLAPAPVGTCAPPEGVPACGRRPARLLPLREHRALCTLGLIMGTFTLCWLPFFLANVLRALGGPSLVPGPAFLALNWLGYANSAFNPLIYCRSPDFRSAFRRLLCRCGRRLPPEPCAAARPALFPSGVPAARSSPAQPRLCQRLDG
Procedure: In order to be able to directly compare the properties of the murine and human β3-AR receptors, it was decided to express the mouse β3 gene in the CHO (Chinese Hamster Ovary) cell line which has already been used to analyse the human β3-AR receptor (see French Patent Application No. 89 00918).
as §1, §2, §3, §4

RA-β3 = settings: cited from earlier work
human RA-β3 [3] = target: T2, human RA-β3; test: Inhibition of isoproterenol-induced cAMP accumulation in CHO-Huβ3 cells (antagonists); type: cell-based
murine RA-β3 [4] = target: T1, murine RA-β3; test: Inhibition of (-)-isoproterenol-induced cAMP accumulation in CHO-Muβ3 cells (antagonists); type: cell-based; settings: for concentration required to inhibit isoproterenol-induced cAMP accumulation (in words): CHO-Muβ3, 5 nM (-)-isoproterenol; for inhibition of isoproterenol-induced accumulation of cAMP (in words): murine RA-β3
murine RA-β3 [5] = target: T1, murine RA-β3; test: Binding of [^125 I]ICYP to saturation, intact CHO-Muβ3 cells; settings: saturation/Scatchard, mean±SEM, n=3, read-out: dissociation constant
Procedure: b. Test for the Binding of ICYP
preconfluent cells such as those described in Example 5 (10^5) are incubated for 1 hour at 37° C. in a HANKS buffer containing 20 mM HEPES (pH 7.4), 1 mM ascorbic acid, 2 μM desipramine, 0.05% bovine serum albumin and 70-7000 pM (-)-[^125 I]ICYP (2000 Ci/mmol, Amersham).
The incubations are stopped by dilution in cold PBS buffer and the bound ligand is separated from free [^125 I]ICYP by filtration (Whatman GF/C filters impregnated with 0.3% polyethyleneimine).
The filters are washed 3 times with cold PBS buffer and the radioactivity is measured.

[6] = CHO-Muβ3, agonist concentration giving 50% of the maximum stimulation, read-out: Kact

Compound: C[C@H](Cc1ccc(OCC(=O)O)cc1)NC[C@H](O)c1cccc(Cl)c1 (relative stereo) [BRL 37344]
EC50 (murine RA-β3 [1]): 0.4 ± 0.1 nM | stimulation of cAMP accumulation (in words) (murine RA-β3 [1]; CHO-Muβ3): potent agonist effect | A.I. (% IPR), intrinsic activity (murine RA-β3 [1]; CHO-Muβ3): 107.4 ± 8.1% | agonist potency in mice compared with human (in words) (murine RA-β3 [1]; murine vs human RA-β3): increased potency | stimulation of cAMP accumulation, of lipolysis and of thermogenesis (in words) (obese rat cells): effectiveness in the stimulation of cAMP accumulation, of lipolysis and of thermogenesis

Compound: CNCC(O)c1ccc(O)c(O)c1 (single isomer, unassigned; (-)) [(-)-adrenalin]
stimulation of cAMP accumulation (in words) (murine RA-β3 [1]; CHO-Muβ3): accumulation of cAMP is stimulated | A.I. (% IPR), intrinsic activity (murine RA-β3 [1]; CHO-Muβ3): 90.6 ± 2.9% | EC50 (murine RA-β3 [1]; [6]): 23 ± 0.3 nM | EC50 (human RA-β3 [2]): 49.2 ± 5.3 nM

maximum concentration of cAMP induced by isoproterenol (murine RA-β3 [1]): 500 pmol per million cells
Compound: CC(C)NCC(O)c1ccc(O)c(O)c1 (single isomer, unassigned; (-)) [(-)-isoproterenol]

Compound: NC[C@H](O)c1ccc(O)c(O)c1 [(-)-noradrenaline]
EC50 (murine RA-β3 [1]): 12.9 ± 4.2 nM | stimulation of cAMP accumulation (in words) (murine RA-β3 [1]; CHO-Muβ3): accumulation of cAMP is stimulated | Emax (murine RA-β3 [1]; read-out: A.I. (% IPR), intrinsic activity): 106 ± 5.6%

Compound: CC(C)(C)NCC(O)COc1cccc2[nH]c(=O)[nH]c12 (stereo not shown) [CGP 12177A]
lipolysis and adenylate cyclase activity (in words) (RA-β3): stimulates lipolysis and adenylate cyclase activity | maximum stimulation of cAMP accumulation (murine RA-β3 [1]; CHO-Muβ3): 77% | A.I. (% IPR), intrinsic activity (murine RA-β3 [1]; CHO-Muβ3): 74.9 ± 7.9% | activation of receptor by β1 and β2 antagonists (in words) (murine RA-β3 [1]): can be activated | agonist type (in words) (murine RA-β3 [1]): behave like partial agonists | EC50 (human RA-β3 [2]): 139 ± 44.3 nM | activation of receptor by β1 and β2 antagonists (in words) (human RA-β3 [2]): can be activated

inhibition of isoproterenol-induced accumulation of cAMP (in words) (human RA-β3 [3]): weak inhibitors | Ki (murine RA-β3 [4]): 6420 ± 584 nM | inhibition of isoproterenol-induced accumulation of cAMP (in words) (murine RA-β3 [4]): weak inhibitors
Compound: Cn1cc(C(F)(F)F)nc1-c1ccc(OCC(O)CNCCOc2ccc(O)c(C(N)=O)c2)cc1 (stereo not shown) [CGP 20712A]
concentration required to inhibit isoproterenol-induced cAMP accumulation (in words) (murine RA-β3 [4]): micromolar concentrations are required; also recorded: micromolar amounts

inhibition of isoproterenol-induced accumulation of cAMP (in words) (human RA-β3 [3]): weak inhibitors | Ki (murine RA-β3 [4]): 4970 ± 137 nM | inhibition of isoproterenol-induced accumulation of cAMP (in words) (murine RA-β3 [4]): weak inhibitors
Compound: Cc1ccc(OCC(O)C(C)NC(C)C)c2c1CCC2 (stereo not shown) [ICI 118551]
concentration required to inhibit isoproterenol-induced cAMP accumulation (in words) (murine RA-β3 [4]): micromolar concentrations are required; also recorded: micromolar amounts

Kd (murine RA-β3 [5]): 0.88 ± 0.088 nM
Compound: CC(C)(C)NC[C@H](O)COc1cccc2[nH]c(C#N)c([125I])c12 [ICYP, [^125 I]iodocyanopindolol]

Compound: CC(C)NCC(O)COc1cccc2ccccc12 (stereo not shown) [Propranolol]
inhibition of isoproterenol-induced accumulation of cAMP (in words) (human RA-β3 [3]): weak inhibitors

Compound: C=CCOc1ccccc1OCC(O)CNC(C)C (stereo not shown) [oxprenolol]
maximum stimulation of cAMP accumulation (murine RA-β3 [1]; CHO-Muβ3): 45% | A.I. (% IPR), intrinsic activity (murine RA-β3 [1]; CHO-Muβ3): 43.8 ± 6.1% | EC50 (murine RA-β3 [1]; [6]): 535 ± 79.3 nM | activation of receptor by β1 and β2 antagonists (in words) (murine RA-β3 [1]): can be activated | agonist type (in words) (murine RA-β3 [1]): behave like partial agonists | EC50 (human RA-β3 [2]): 76.6 ± 12.6 nM | activation of receptor by β1 and β2 antagonists (in words) (human RA-β3 [2]): can be activated

Compound: CC(C)NCC(O)COc1cccc2[nH]ccc12 (stereo not shown) [pindolol]
maximum stimulation of cAMP accumulation (murine RA-β3 [1]; CHO-Muβ3): 36% | A.I. (% IPR), intrinsic activity (murine RA-β3 [1]; CHO-Muβ3): 35.1 ± 3.1% | EC50 (murine RA-β3 [1]; [6]): 999 ± 197 nM | activation of receptor by β1 and β2 antagonists (in words) (murine RA-β3 [1]): can be activated | agonist type (in words) (murine RA-β3 [1]): behave like partial agonists | activation of receptor by β1 and β2 antagonists (in words) (human RA-β3 [2]): can be activated
